How the values were obtained:
Rat FAAH = target: T1, Rat FAAH (Rattus norvegicus, UniProt P97612); assay: Assay Method 2: FAAH assay, 3H-anandamide hydrolysis in cell homogenate; type: biochemical; details: transfected SK-N-MC cell homogenate, 80 nM 3H-AEA, 1 h rt, > = solubility limit or highest concentration tested
T1 construct: expressed in transfected cells
T1 sequence (P97612 1-579): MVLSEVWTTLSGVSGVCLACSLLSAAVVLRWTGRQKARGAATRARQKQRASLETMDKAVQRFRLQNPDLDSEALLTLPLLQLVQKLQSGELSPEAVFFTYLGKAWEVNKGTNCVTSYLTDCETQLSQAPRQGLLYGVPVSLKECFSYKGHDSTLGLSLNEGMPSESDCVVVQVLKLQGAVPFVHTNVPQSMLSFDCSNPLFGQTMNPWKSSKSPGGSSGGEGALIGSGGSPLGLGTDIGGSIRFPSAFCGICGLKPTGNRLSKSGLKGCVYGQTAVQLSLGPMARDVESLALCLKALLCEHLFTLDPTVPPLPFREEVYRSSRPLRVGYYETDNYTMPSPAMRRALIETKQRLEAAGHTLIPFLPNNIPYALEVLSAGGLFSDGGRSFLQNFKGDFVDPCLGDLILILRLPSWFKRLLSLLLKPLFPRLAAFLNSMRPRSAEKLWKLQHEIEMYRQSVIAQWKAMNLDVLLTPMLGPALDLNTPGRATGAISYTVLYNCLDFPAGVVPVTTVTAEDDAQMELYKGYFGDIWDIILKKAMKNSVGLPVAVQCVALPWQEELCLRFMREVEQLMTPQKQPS
Procedure: A. Transfection of Cells with Rat FAAH
(§1) A 10-cm tissue culture dish with a confluent monolayer of SK-N-MC cells was split 2 days (d) prior to transfection. Using sterile technique, the media was removed and the cells were detached from the dish by the addition of trypsin. One fifth of the cells were then placed onto a new 10-cm dish. Cells were grown in a 37° C. incubator with 5% CO2 in Minimal Essential Media Eagle with 10% Fetal Bovine Serum. After 2 d, cells were approximately 80% confluent. These cells were removed from the dish with trypsin and pelleted in a clinical centrifuge. The pellet was re-suspended in 400 μL complete media and transferred to an electroporation cuvette with a 0.4 cm gap between the electrodes. Supercoiled rat FAAH cDNA (1 μg) was added to the cells and mixed. The voltage for the electroporation was set at 0.25 kV, and the capacitance was set at 960 μF. After electroporation, the cells were diluted into complete media (10 mL) and plated onto four 10-cm dishes. Because of the variability in the efficiency of electroporation, four different concentrations of cells were plated. The ratios used were 1:20, 1:10, and 1:5, with the remainder of the cells being added to the fourth dish. The cells were allowed to recover for 24 h before adding the selection media (complete media with 600 μg/mL G418). After 10 d, dishes were analyzed for surviving colonies of cells. Dishes with well-isolated colonies were used. Cells from individual colonies were isolated and tested.
(§2) The assay mixture consisted of 50 μL of the cell homogenate, 10 μL of the test compound, and 40 μL of anandamide [1-^3H-ethanolamine] (^3H-AEA, Perkin-Elmer, 10.3 Ci/mmol), which was added last, for a final tracer concentration of 80 nM. The reaction mixture was incubated at it for 1 h. During the incubation, 96-well Multiscreen filter plates (catalog number MAFCNOB50; Millipore, Bedford, Mass., USA) were loaded with 25 μL of activated charcoal (Multiscreen column loader, catalog number MACL09625, Millipore) and washed once with 100 μL of MeOH. Also during the incubation, 96-well DYNEX MicroLite plates (catalog number NL510410) were loaded with 100 μL of MicroScint40 (catalog number 6013641, Packard Bioscience, Meriden, Conn., USA). After the 1 h incubation, 60 μL of the reaction mixture were transferred to the charcoal plates, which were then assembled on top of the DYNEX plates using Centrifuge Alignment Frames (catalog number MACF09604, Millipore). The unbound labeled ethanolamine . was centrifuged through to the bottom plate (5 min at 2000 rpm), which was preloaded with the scintillant, as described above. The plates were sealed and left at rt for 1 h before counting on a Hewlett Packard TopCount.
(§3) Where activity is shown as greater than (>) a particular value, the value is the solubility limit of the compound in the assay medium or the highest concentration tested in the assay.

FAAH = target: T2, FAAH (Homo sapiens, UniProt O00519); assay: Assay Method 1: FAAH assay, 3H-anandamide hydrolysis in cell homogenate; type: biochemical; design: expressed in transfected cells; details: T84 or transfected SK-N-MC cell homogenate, 80 nM 3H-AEA, 1 h rt, > = solubility limit or highest concentration tested
T2 sequence (O00519 1-579): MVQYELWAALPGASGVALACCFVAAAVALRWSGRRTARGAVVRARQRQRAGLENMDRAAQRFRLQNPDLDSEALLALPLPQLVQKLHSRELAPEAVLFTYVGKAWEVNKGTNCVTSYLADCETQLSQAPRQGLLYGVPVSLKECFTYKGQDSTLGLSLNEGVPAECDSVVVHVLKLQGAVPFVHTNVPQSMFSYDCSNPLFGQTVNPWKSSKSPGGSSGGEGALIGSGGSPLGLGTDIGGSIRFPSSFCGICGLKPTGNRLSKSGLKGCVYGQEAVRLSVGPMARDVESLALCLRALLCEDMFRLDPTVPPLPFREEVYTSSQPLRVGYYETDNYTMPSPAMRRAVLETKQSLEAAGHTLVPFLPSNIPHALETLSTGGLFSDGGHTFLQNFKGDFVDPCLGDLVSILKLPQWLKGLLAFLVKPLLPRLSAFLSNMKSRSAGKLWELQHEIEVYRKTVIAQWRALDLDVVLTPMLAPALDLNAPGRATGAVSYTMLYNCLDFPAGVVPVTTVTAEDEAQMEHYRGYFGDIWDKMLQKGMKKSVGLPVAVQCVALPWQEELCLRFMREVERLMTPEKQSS
Procedure: A. Transfection of Cells with Human FAAH
as §1, with “Supercoiled human” for “Supercoiled rat”
as §2, with “at rt” for “at it”, “ethanolamine” for “ethanolamine .”
as §3

| SMILES | IC50 (Rat FAAH) [µM] | IC50 (FAAH) [µM] |
| --- | --- | --- |
| O=C(c1ncco1)C1CCN(Cc2ccc(Br)cc2F)CC1 [Example 27, [1-(4-Bromo-2-fluoro-benzyl)-piperidin-4-yl]-oxazol-2-yl-methanone] | 0.075 | 0.011 |
| O=C(c1ncco1)C1CCN(Cc2ccc(Cl)cc2)CC1 [Example 35, [1-(4-Chloro-benzyl)-piperidin-4-yl]-oxazol-2-yl-methanone] | 0.04 | 0.019 |
| O=C(c1ncco1)C1CCN(Cc2ccccc2)CC1 [Example 89, (1-Benzyl-piperidin-4-yl)-oxazol-2-yl-methanone] | 7 | 3 |
| O=C(c1ncco1)C1CCN(Cc2cccc(Br)c2)CC1 [Example 52, [1-(3-Bromo-benzyl)-piperidin-4-yl]-oxazol-2-yl-methanone] | 0.2 | 0.035 |
| O=C(c1ncco1)C1CCN(Cc2ccc(Br)c(Br)c2)CC1 [Example 87, [1-(3,4-Dibromo-benzyl)-piperidin-4-yl]-oxazol-2-yl-methanone] | 0.002 | 0.002 |
| O=C(c1ncco1)C1CCN(Cc2ccc(Br)cc2)CC1 [Example 51, [1-(4-Bromo-benzyl)-piperidin-4-yl]-oxazol-2-yl-methanone] | 0.033 | 0.012 |
| CC(C)c1ccc(CN2CCC(C(=O)c3ncco3)CC2)cc1 [Example 86, [1-(4-Isopropyl-benzyl)-piperidin-4-yl]-oxazol-2-yl-methanone] | 0.17 | 0.11 |
| COc1ccc(CN2CCC(C(=O)c3ncco3)CC2)cc1 [Example 61, [1-(4-Methoxy-benzyl)-piperidin-4-yl]-oxazol-2-yl-methanone] | 1.2 | 0.208 |
| O=C(c1ncco1)C1CCN(Cc2ccc(Oc3ccccc3)cc2)CC1 [Example 57, Oxazol-2-yl-[1-(4-phenoxy-benzyl)-piperidin-4-yl]-methanone] | 0.532 | 0.21 |
| O=C(c1ncco1)C1CCN(Cc2ccc(Cl)nc2)CC1 [Example 82, [1-(6-Chloro-pyridin-3-ylmethyl)-piperidin-4-yl]-oxazol-2-yl-methanone] | 0.65 | 0.125 |
| O=C(c1ncco1)C1CCN(Cc2ccc3ccccc3c2)CC1 [Example 88, (1-Naphthalen-2-ylmethyl-piperidin-4-yl)-oxazol-2-yl-methanone] | 0.009 | 0.004 |
| O=C(c1ncco1)C1CCN(Cc2ccc3cc(Cl)ccc3n2)CC1 [Example 77, [1-(6-Chloro-quinolin-2-ylmethyl)-piperidin-4-yl]-oxazol-2-yl-methanone] | 0.022 | 0.007 |
| O=C(c1ncco1)C1CCN(S(=O)(=O)c2ccc(Cl)cc2)CC1 [Example 4, [1-(4-Chloro-benzenesulfonyl)-piperidin-4-yl]-oxazol-2-yl-methanone] | 8 | 1.2 |
| O=C(c1ncco1)C1CCN(Cc2ccc3ccccc3c2O)CC1 [Example 47, [1-(1-Hydroxy-naphthalen-2-ylmethyl)-piperidin-4-yl]-oxazol-2-yl-methanone] | 0.007 | 0.004 |
| Cc1cccc(CN2CCC(C(=O)c3ncco3)CC2)c1 [Example 65, [1-(3-Methyl-benzyl)-piperidin-4-yl]-oxazol-2-yl-methanone] | 0.97 | 0.25 |
| O=C(c1ncco1)C1CCN(Cc2cc3cc4c(cc3nc2Cl)OCO4)CC1 [Example 67, [1-(6-Chloro-[1,3]dioxolo[4,5-g]quinolin-7-ylmethyl)-piperidin-4-yl]-oxazol-2-yl-methanone] | > 10 | 0.745 |
| O=C(c1ncco1)C1CCN(Cc2ccc3cc[nH]c3c2)CC1 [Example 45, [1-(1H-Indol-6-ylmethyl)-piperidin-4-yl]-oxazol-2-yl-methanone] | 1.6 | 0.212 |
| O=C(c1ncco1)C1CCN(Cc2cnc3ccccc3c2)CC1 [Example 85, Oxazol-2-yl-(1-quinolin-3-ylmethyl-piperidin-4-yl)-methanone] | 0.043 | 0.018 |
| Cn1c(CN2CCC(C(=O)c3ncco3)CC2)cc2ccccc21 [Example 50, [1-(1-Methyl-1H-indol-2-ylmethyl)-piperidin-4-yl]-oxazol-2-yl-methanone] | 0.008 | 0.004 |
| CN(C)c1nc2ccccc2cc1CN1CCC(C(=O)c2ncco2)CC1 [Example 72, [1-(2-Dimethylamino-quinolin-3-ylmethyl)-piperidin-4-yl]-oxazol-2-yl-methanone] | 0.038 | 0.046 |
